From patent EP0172917A1, “AGENTS FOR TREATING IMMUNODEFICIENCY, METHOD FOR TREATING THEM, AND USE THEREOF” (Yoshitomi Pharmaceutical Industries, Ltd., priority 1984, dated 1985)

Tests used:
MeHSA-induced DTH [1] = assay: Stimulative effect on cell-mediated immunity: MeHSA-induced delayed type hypersensitivity, footpad thickness; type: in vivo, C57BL/6 mice; conditions: for DTH (mm) (mean ± standard error): C57BL/6 mice, control 0.21±0.02; for % increase: DTH vs control
Method: (§1) Eight week-old female C57BL/6 mice were injected subcutaneously in the back with 0.1 ml of a 0.25% methylated human serum albumin (hereinafter referred to as MeHSA). Compound (I) was administered orally for 4 consecutive days from the day of the sensitization. One hour after the last administration of Compound (I), 0.025 ml of a 0.1% MeHSA solution was injected subcutaneously on the left hind^paw. The thickness of footpad was measured the 24 hours after the injection using a dissecting microscope by the method of Baba et al [Acta Pathology Japan, vol. 27, p. 165 (1977)]. The difference between the thickness of footpad before and after the injection of MeHSA was expressed as the delayed type hypersensitivity (hereinafter referred to as DTH).

[2] = tested on: spontaneous rosette forming cells; assay: Stimulative effect on reduced cell-mediated immunity: spontaneous rosette forming cells in thymus of SHR; type: in vivo, spontaneous hypertensive rats; conditions: for Ratio (%) of S-RFC (mean ± standard error): SHR, control 46.7±2.9; for % increase: S-RFC ratio vs control
Method: Twenty-four hours after the last administration, thymus was removed and cell suspension was prepared. The numbers of spontaneous rosette forming cells (hereinafter referred to as S-RFC) were measured the method of Takeichi and Boone [Cellular Immunology, vol. 27, p.

[3] = tested on: thymus-rossete forming cells (RFC); assay: Restorative effect on reduced immune response: thymus RFC in cyclophosphamide-pretreated mice; type: in vivo, BALB/c mice; conditions: for Ratio (%) of RFC (mean ± standard error): BALB/c mice; for % decrease: RFC ratio vs control
Method: (§2) Six week-old female C57BL/6 mice were immunized with the intraperitoneal administration of 5 x 10^8 sheep red blood cells. […] On the 4th day after immunization, the numbers of thymus-rossete forming cells (RFC) in mice were assessed by the method of Bach et al [Cellular Immunology, vol. 3, p. […] Viable thymus lymphocytes which attached to four or more sheep red blood cells were determined as RFC. In control group, 0.5% methylcellulose solution was orally administered into mice.
The same procedures as shown in Experiment 1 were performed except that six week-old female BALB/c mice were immunized with 5 x 10^8 sheep red blood cells and 20 mg/kg cyclophosphamide was orally administered to mice the day before and on immunization.

male Wistar rats = assay: Acute toxicity in rats (LD50, Probit method); type: in vivo; conditions: after one week, 10080 min
Method: (§3) Compound (I) was administered orally or intraperitoneally to groups of 8 male Wistar rats weighing about 200 g. After one week, acute toxicity (LD50 value) was determined by Probit method.

[4] = tested on: natural thymotoxic autoantibody; assay: Inhibitory effect on the production of autoantibody (NTA); type: in vivo, NZB/W F1 mice; conditions: 30 mg/kg orally three times every week
Method: To 4 week-old female NZB/W F, mice was orally administered Compound (I) three times every week and, at 7 week-old mice blood was gathered from the eyegrounds and the serum was separated. The detection of natural thymotoxic autoantibody (hereinafter referred to as NTA) was performed by the method of Takeichi et al [Cellular Immunology, vol. 60, p. 181 (1981)].

MeHSA-induced DTH [5] = assay: Immunosuppressive effect: MeHSA-induced DTH in higher responder strain; type: in vivo, BALB/c mice; conditions: for DTH (mm) (mean ± standard error): BALB/c mice, control 0.96±0.09; for % inhibition: DTH vs control
Method: as §1
Effect of Compound (I) on the MeHSA-induced DTH was examined in 10 week-old female BALB/c mice, higher responder strain to the MeHSA-induced DTH, by the same procedures as described in Experiment 5.

male dd-strain mice = assay: Acute toxicity in mice (LD50); type: in vivo; conditions: 10080 min
Method: as §3
LD50 values of Compound (I) in groups of 10 male dd-strain mice weighing 20-25 g were also determined.

peritoneal macrophages = assay: Stimulative effect on phagocytosis of macrophages; type: cell-based, rats; conditions: rat peritoneal macrophages
Method: (§4) Effect of Compound (I) on phagocytosis was examined using rat peritoneal leukocytes according to the method of Stossel et al described in Journal of Clinical Investigation, vol. 51, p. 615 (1972).
Casein sodium was injected intraperitoneally into rats. Three days later, peritoneal macrophages were harvested. Phagocytosis was assessed by the same procedures as shown in Experiment 3.

[6] = tested on: thymus-rossete forming cells (RFC); assay: Stimulative effect on immune response: thymus rosette forming cells after sheep red blood cell immunization; type: in vivo, C57BL/6 mice; conditions: for Ratio (%) of RFC (mean ± standard error): C57BL/6 mice, control 1.06±0.31; for % increase: RFC ratio vs control
Method: as §2

[7] = tested on: rat peritoneal leukocytes; assay: Stimulative effect on phagocytosis of leukocytes; type: cell-based
From the text: as §4

SMILES: CCN(CC)CCN1CCC2(CC1)SCC(=O)N2c1ccccc1.Cl.Cl.O [Compound (I), 8-(2-diethylaminoethyl)-3-oxo-4-phenyl-l-thia-4,8-diazaspiro-[4.5]decane dihydrochloride monohydrate]
- DTH (mm) (mean ± standard error) (MeHSA-induced DTH [1]; 10 mg/kg orally for 4 days): 0.22±0.02 mm
- DTH (mm) (mean ± standard error) (MeHSA-induced DTH [1]; 100 mg/kg orally for 4 days): 0.42±0.03 mm
- DTH (mm) (mean ± standard error) (MeHSA-induced DTH [1]; 300 mg/kg orally for 4 days): 0.33±0.03 mm
- % increase (MeHSA-induced DTH [1]; 10 mg/kg orally): 5%
- % increase (MeHSA-induced DTH [1]; 100 mg/kg orally): 100%
- % increase (MeHSA-induced DTH [1]; 300 mg/kg orally): 57%
- Ratio (%) of S-RFC (mean ± standard error) ([2]; 25 mg/kg orally for 20 days): 55.0±5.2%
- Ratio (%) of S-RFC (mean ± standard error) ([2]; 100 mg/kg orally for 20 days): 57.8±3.6 %
- % increase ([2]; 25 mg/kg orally): 18%
- % increase ([2]; 100 mg/kg orally): 24%
- Ratio (%) of RFC (mean ± standard error) ([3]; Compound (I) 10 mg/kg orally with cyclophosphamide 20 mg/kg): 1.78±0.80%
- Ratio (%) of RFC (mean ± standard error) ([3]; Compound (I) 30 mg/kg orally with cyclophosphamide 20 mg/kg): 3.86±0.52 %
- Ratio (%) of RFC (mean ± standard error) ([3]; Compound (I) 100 mg/kg orally with cyclophosphamide 20 mg/kg): 5.26±0.64 %
- % decrease ([3]; Compound (I) 10 mg/kg with cyclophosphamide 20 mg/kg): 74%
- % decrease ([3]; Compound (I) 30 mg/kg with cyclophosphamide 20 mg/kg): 43%
- % decrease ([3]; Compound (I) 100 mg/kg with cyclophosphamide 20 mg/kg): 23%
- LD50 (male Wistar rats; intraperitoneal): 827 mg/kg
- LD50 (male Wistar rats; oral): >8,000 mg/kg
- NTA (%) (mean ± standard error) ([4]; dilution of serum 64, control 28.0±0.8): 9.5±0.6 %
- NTA (%) (mean ± standard error) ([4]; dilution of serum 128, control 20.3±1.1): 8.7±0.5 %
- DTH (mm) (mean ± standard error) (MeHSA-induced DTH [5]; 3 mg/kg orally): 0.91±0.04 mm
- DTH (mm) (mean ± standard error) (MeHSA-induced DTH [5]; 30 mg/kg orally): 0.77±0.03 mm
- DTH (mm) (mean ± standard error) (MeHSA-induced DTH [5]; 300 mg/kg orally): 0.71±0.04 mm
- % inhibition (MeHSA-induced DTH [5]; 3 mg/kg orally): 5%
- % inhibition (MeHSA-induced DTH [5]; 30 mg/kg orally): 20%
- % inhibition (MeHSA-induced DTH [5]; 300 mg/kg orally): 36%
- LD50 (male dd-strain mice; intraperitoneal): 474 mg/kg
- LD50 (male dd-strain mice; oral): 1,841 mg/kg
- % increase of phagocytosis (peritoneal macrophages; 10 µM): 12.5%
- % increase of phagocytosis (peritoneal macrophages; 100 µM): 30.6%
- Ratio (%) of RFC (mean ± standard error) ([6]; 3 mg/kg orally for 4 days): 5.33±0.99 %
- Ratio (%) of RFC (mean ± standard error) ([6]; 30 mg/kg orally for 4 days): 6.28±1.27 %
- % increase ([6]; 3 mg/kg orally): 403%
- % increase ([6]; 30 mg/kg orally): 492%
- % increase of phagocytosis ([7]; 10 μM): 27.1%
- % increase of phagocytosis ([7]; 100 μM): 61.4%

SMILES: O=P1(N(CCCl)CCCl)NCCCO1 (stereo not drawn) [Cyclophosphamide, cyclophosphamide, reference compound]
- % decrease ([3]; cyclophosphamide 20 mg/kg alone): 79%
- % decrease ([3]; cyclophosphamide 20 mg/kg alone, listed as cyclophosphamide): about 79%
- Ratio (%) of RFC (mean ± standard error) ([3]; cyclophosphamide 20 mg/kg orally alone, control 6.81±1.38): 1.14±0.63%
